Laboratory results: patent publication US6737383B1, “Herbicidal oxadiazolidines” (priority 1999, dated 2004)

Tests used:
smallflower flatsedge = test: Test B flood test smallflower flatsedge; assay type: in vivo, Cyperus difformis
In short: (§1)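 Flood test on plants grown to the 2-leaf stage; treated plants kept in greenhouse twelve to sixteen days, then visually rated against controls on a 0 (no effect) to 10 (complete control) scale.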

winter wheat [1] = test: Test E winter wheat; assay type: in vivo, Triticum aestivum; conditions: Postemergence
In short: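 Each compound, carried in a non-phytotoxic solvent blend including surfactant, was applied (postemergence: over the top of young plants at 1- to 4-leaf stage). Plants stayed in the greenhouse about 21 to 28 days before visual comparison with untreated controls.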

bamyardgrass = test: Test B flood test barnyardgrass; assay type: in vivo, Echinochloa crus-galli
In short: as §1

winter barley = test: Test E winter barley; assay type: in vivo, Hordeum vulgare; conditions: Preemergence
Johnson grass = test: Test D Johnson grass; assay type: in vivo, Sorghum halepense; conditions: Rate 125 g/ha, Preemergence; 0 to 100 scale, 0 no injury, 100 complete control
In short: (§2)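 Each weed species is planted in its own pot or compartment; preemergence doses go on the sandy loam surface within a day. The formulation is a surfactant-containing, non-phytotoxic solvent blend. Ratings come from visual comparison with untreated controls 14 to 21 days later, where 100 means complete control.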

wild oat [2] = test: Test B pre/postemergence wild oat; assay type: in vivo, Avena fatua; conditions: for Plant response rating, Wild oats: Rate 250 g/ha
In short: (§3)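 Test chemicals in a non-phytotoxic solvent mixture with surfactant were sprayed preemergence onto planted seeds and postemergence onto plants 2 to 18 cm tall (1- to 4-leaf stage). After twelve to sixteen days in a greenhouse, injury was visually rated against untreated controls from 0 (no effect) to 10 (complete control).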

wild oat [3] = test: Test E wild oat; assay type: in vivo, Avena fatua; conditions: Preemergence
rice = test: Test B flood test rice; assay type: in vivo, Oryza sativa
In short: as §1

Italian ryegrass = test: Test E Italian ryegrass; assay type: in vivo, Lolium multiflorum; conditions: Preemergence
surinam grass = test: Test D surinam grass; assay type: in vivo, Brachiaria decumbens; conditions: Rate 125 g/ha, Preemergence; 0 to 100 scale, 0 no injury, 100 complete control
In short: as §2

blackgrass [4] = test: Test E blackgrass; assay type: in vivo, Alopecurus myosuroides; conditions: Preemergence
winter wheat [5] = test: Test E winter wheat; assay type: in vivo, Triticum aestivum; conditions: Preemergence
blackgrass [6] = test: Test B pre/postemergence blackgrass; assay type: in vivo, Alopecurus myosuroides
In short: as §3

Alexandergrass = test: Test D Alexandergrass; assay type: in vivo, Brachiaria plantaginea; conditions: Rate 125 g/ha, Preemergence; 0 to 100 scale, 0 no injury, 100 complete control
In short: as §2

green foxtail = test: Test E green foxtail; assay type: in vivo, Setaria viridis; conditions: Preemergence
tall mallow = test: Test D tall mallow; assay type: in vivo, Malva sylvestris; conditions: Rate 125 g/ha, Preemergence; 0 to 100 scale, 0 no injury, 100 complete control
In short: as §2

[7] = Postemergence (flood test species), Rate 125 g/ha, scale of 0 to 10 where 0 is no effect and 10 is complete control
[8] = Rate 62 g/ha, Postemergence section, flood test species, scale of 0 to 10 where 0 is no effect and 10 is complete control
[9] = Rate 250 g/ha, Postemergence (flood test), scale 0 to 10, 0 is no effect, 10 is complete control
[10] = Rate 500 g/ha, listed under Postemergence (flood test species), scale 0 to 10, 0 no effect, 10 complete control
[11] = Rate 62 g/ha, 0 to 100 scale, 0 no effect, 100 complete control
[12] = Rate 125 g/ha, 0 to 100 scale (0 no effect, 100 complete control)
[13] = Rate 500 g/ha, 0 to 100 scale where 0 is no effect and 100 is complete control
[14] = Postemergence, Rate 125 g/ha, scale of 0 to 10 where 0 is no effect and 10 is complete control
[15] = Preemergence, Rate 62 g/ha, scale 0 to 10 (0 no effect, 10 complete control)
[16] = Preemergence, Rate 500 g/ha, scale 0 to 10 (0 no effect, 10 complete control)
[17] = Rate 62 g/ha, Postemergence, scale of 0 to 10 where 0 is no effect and 10 is complete control
[18] = Rate 500 g/ha, Postemergence, scale 0 to 10, 0 no effect, 10 complete control

## CC(C)N(C(=O)n1oc(=O)n(C(C)C)c1=O)c1ccc(Cl)cc1 [Compound 114]
Smallflower flatsedge; [7]
  S. Flatsedge plant response rating: 0
Smallflower flatsedge; [8]
  S. Flatsedge plant response rating: 0
Smallflower flatsedge; [9]
  Plant response rating, S. Flatsedge: 0
Smallflower flatsedge; [10]
  S. Flatsedge plant response rating: 0
Winter wheat [1]; Rate 62 g/ha, 0 to 100 scale
  Plant response rating, Wheat (winter): 0
Winter wheat [1]; Rate 125 g/ha, 0 to 100 scale
  Plant response rating, Wheat (winter): 10
Winter wheat [1]; Rate 250 g/ha, 0 to 100 scale (0 no effect, 100 complete control)
  Plant response rating, Wheat (winter): 60
Winter wheat [1]; Rate 500 g/ha, 0 to 100 scale, 0 no effect, 100 complete control
  Plant response rating, Wheat (winter): 20
bamyardgrass; Postemergence, Rate 62 g/ha, scale 0 to 10, 0 is no effect, 10 is complete control
  Barnyardgrass plant response rating: 0
bamyardgrass; Rate 125 g/ha, Postemergence section (flood test species), scale 0 to 10, 0 no effect, 10 complete control
  Barnyardgrass plant response rating: 0
bamyardgrass; [10]
  Barnyardgrass plant response rating: 0
bamyardgrass; flood test, listed under Postemergence, Rate 250 g/ha, scale 0 to 10, 0 no effect, 10 complete control
  Barnyardgrass plant response rating: 0
Winter barley; [11]
  Plant response rating, Barley (winter): 0
Winter barley; [12]
  Plant response rating, Barley (winter): 5
Winter barley; Rate 250 g/ha, 0 to 100 scale
  Plant response rating, Barley (winter): 10
Winter barley; [13]
  Plant response rating, Barley (winter): 40
Johnson grass
  Plant response rating Johnsongrass: 0
Wild oat [2]; [14]
  Wild oats plant response rating: 0
Wild oat [2]; [15]
  Wild oats plant response rating: 5
Wild oat [2]; Preemergence, Rate 125 g/ha, 0 is no effect, 10 is complete control
  Wild oats plant response rating (0 to 10 scale): 7
Wild oat [2]; Preemergence, scale of 0 to 10 where 0 is no effect and 10 is complete control
  Plant response rating, Wild oats: 9
Wild oat [2]; [16]
  Wild oats plant response rating: 10
Wild oat [2]; [17]
  Wild oats plant response rating: 0
Wild oat [2]; Postemergence, scale 0 to 10, 0 is no effect, 10 is complete control
  Plant response rating, Wild oats: 2
Wild oat [2]; [18]
  Wild oats plant response rating: 2
Wild oat [3]; [11]
  Plant response rating, Wild oat: 20
Wild oat [3]; [12]
  Plant response rating, Wild oat: 40
Wild oat [3]; [13]
  Plant response rating, Wild oat: 70
rice; [7]
  Rice plant response rating: 0
rice; [8]
  Rice plant response rating: 0
rice; [9]
  Plant response rating, Rice: 0
rice; [10]
  Rice plant response rating: 0
Italian ryegrass; [11]
  Plant response rating, I. Ryegrass: 20
Italian ryegrass; [12]
  Plant response rating, I. Ryegrass: 30
Italian ryegrass; Rate 250 g/ha, 0 to 100 scale
  Plant response rating, I. Ryegrass: 100
Italian ryegrass; [13]
  Plant response rating, I. Ryegrass: 95
Surinam grass
  Surinam grass plant response rating: 75
Blackgrass [4]; [11]
  Plant response rating, Blackgrass: 30
Blackgrass [4]; [12]
  Plant response rating, Blackgrass: 50
Blackgrass [4]; Rate 250 g/ha, 0 to 100 scale
  Plant response rating, Blackgrass: 50
Blackgrass [4]; [13]
  Plant response rating, Blackgrass: 100
Winter wheat [5]; [11]
  Plant response rating, Wheat (winter): 0
Winter wheat [5]; [12]
  Plant response rating, Wheat (winter): 10
Winter wheat [5]; Rate 250 g/ha, 0 to 100 scale
  Plant response rating, Wheat (winter): 0
Winter wheat [5]; [13]
  Plant response rating, Wheat (winter): 0
Blackgrass [6]; [14]
  Blackgrass plant response rating: 2
Blackgrass [6]; Postemergence, Rate 250 g/ha, scale 0 to 10, 0 no effect, 10 complete control
  Blackgrass plant response rating: 7
Blackgrass [6]; [15]
  Blackgrass plant response rating: 6
Blackgrass [6]; Preemergence, Rate 125 g/ha, scale 0 to 10 (0 no effect, 10 complete control)
  Plant response rating, Blackgrass: 8
Blackgrass [6]; Preemergence, Rate 250 g/ha, scale of 0 to 10 where 0 is no effect and 10 is complete control
  Plant response rating, Blackgrass: 10
Blackgrass [6]; [16]
  Blackgrass plant response rating: 10
Blackgrass [6]; [17]
  Blackgrass plant response rating: 0
Blackgrass [6]; [18]
  Blackgrass plant response rating: 8
Alexandergrass
  Plant response rating, Alexandergrass: 98
Green foxtail; [11]
  Plant response rating, Green foxtail: 45
Green foxtail; [12]
  Plant response rating, Green foxtail: 100
Green foxtail; Rate 250 g/ha, 0 to 100 scale
  Plant response rating, Green foxtail: 100
Green foxtail; [13]
  Plant response rating, Green foxtail: 85
Tall mallow
  Tall Mallow plant response rating: 10
